# The supplement of paper PMC11451515
# Test system: SEM cells
# Experiment: cell viability relative to DMSO control; higher = less cytotoxic
# Settings: 48 h
# Summary of the method: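 Viability was expressed as a per-plate percentage of DMSO wells, with cell-free wells as background. Leukemia cells (NOMO1 or SEM at 500 cells/well, P12-Ichikawa at 1000 cells/well) were adapted for at least four passages in each medium and seeded in 1536-well plates (5 μl). Library compounds in DMSO were pin-dosed over an 11-point threefold series from 47 μM to 0.79 nM, and CellTiter-Glo One luminescence was read after 48 h at 37°C.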
# [1] = HPLM + 10% dialyzed FBS, 0.000781 µM
# [2] = HPLM + 10% dialyzed FBS, 0.00234 µM
# [3] = HPLM + 10% dialyzed FBS, 0.00702 µM
# [4] = HPLM + 10% dialyzed FBS, 0.0211 µM
# [5] = HPLM + 10% dialyzed FBS, 0.0632 µM
# [6] = HPLM + 10% dialyzed FBS, 0.19 µM
# [7] = HPLM + 10% dialyzed FBS, 0.569 µM
# [8] = HPLM + 10% dialyzed FBS, 1.71 µM
# [9] = HPLM + 10% dialyzed FBS, 5.12 µM
# [10] = HPLM + 10% dialyzed FBS, 15.4 µM
# [11] = HPLM + 10% dialyzed FBS, 46.1 µM
# [12] = RPMI 5 mM glucose + 10% FBS, 0.000781 µM
# [13] = RPMI 5 mM glucose + 10% FBS, 0.00234 µM
# [14] = RPMI 5 mM glucose + 10% FBS, 0.00702 µM
# [15] = RPMI 5 mM glucose + 10% FBS, 0.0211 µM
# [16] = RPMI 5 mM glucose + 10% FBS, 0.0632 µM
# [17] = RPMI 5 mM glucose + 10% FBS, 0.19 µM
# [18] = RPMI 5 mM glucose + 10% FBS, 0.569 µM
# [19] = RPMI 5 mM glucose + 10% FBS, 1.71 µM
# [20] = RPMI 5 mM glucose + 10% FBS, 5.12 µM
# [21] = RPMI 5 mM glucose + 10% FBS, 15.4 µM
# [22] = RPMI 5 mM glucose + 10% FBS, 46.1 µM
# [23] = RPMI 5 mM glucose + 10% dialyzed FBS, 0.000781 µM
# [24] = RPMI 5 mM glucose + 10% dialyzed FBS, 0.00234 µM
# [25] = RPMI 5 mM glucose + 10% dialyzed FBS, 0.00702 µM
# [26] = RPMI 5 mM glucose + 10% dialyzed FBS, 0.0211 µM
# [27] = RPMI 5 mM glucose + 10% dialyzed FBS, 0.0632 µM
# [28] = RPMI 5 mM glucose + 10% dialyzed FBS, 0.19 µM
# [29] = RPMI 5 mM glucose + 10% dialyzed FBS, 0.569 µM
# [30] = RPMI 5 mM glucose + 10% dialyzed FBS, 1.71 µM
# [31] = RPMI 5 mM glucose + 10% dialyzed FBS, 5.12 µM
# [32] = RPMI 5 mM glucose + 10% dialyzed FBS, 15.4 µM
# [33] = RPMI 5 mM glucose + 10% dialyzed FBS, 46.1 µM
compound,measurement,setting,value
OC[C@H]1O[C@@H]2[C@@H](OC\3=N\C(=N)\C=C/[N@@]23)[C@@H]1O,cell viability,[1],94%
same,cell viability,[2],107%
same,cell viability,[3],93.1%
same,cell viability,[4],97.8%
same,cell viability,[5],84.4%
same,cell viability,[6],47.9%
same,cell viability,[7],34.6%
same,cell viability,[8],28.1%
same,cell viability,[9],21.9%
same,cell viability,[10],16.1%
same,cell viability,[11],14.5%
same,cell viability,[12],105%
same,cell viability,[13],116%
same,cell viability,[14],102%
same,cell viability,[15],117%
same,cell viability,[16],87%
same,cell viability,[17],46.9%
same,cell viability,[18],41.9%
same,cell viability,[19],23.3%
same,cell viability,[20],16%
same,cell viability,[21],13.8%
same,cell viability,[22],13.5%
same,cell viability,[23],85.3%
same,cell viability,[24],86.2%
same,cell viability,[25],99.8%
same,cell viability,[26],81.1%
same,cell viability,[27],59.8%
same,cell viability,[28],37.8%
same,cell viability,[29],22.4%
same,cell viability,[30],14.8%
same,cell viability,[31],13%
same,cell viability,[32],10.7%
same,cell viability,[33],8.17%
OCCC#Cc1nc(-c2ccc(F)cc2)c(-c2ccncc2)n1CCCc1ccccc1,cell viability,[1],86.8%
same,cell viability,[2],115%
same,cell viability,[3],115%
same,cell viability,[4],120%
same,cell viability,[5],118%
same,cell viability,[6],109%
same,cell viability,[7],131%
same,cell viability,[8],123%
same,cell viability,[9],124%
same,cell viability,[10],105%
same,cell viability,[11],88.4%
same,cell viability,[12],98.3%
same,cell viability,[13],122%
same,cell viability,[14],112%
same,cell viability,[15],118%
same,cell viability,[16],103%
same,cell viability,[17],130%
same,cell viability,[18],116%
same,cell viability,[19],127%
same,cell viability,[20],126%
same,cell viability,[21],107%
same,cell viability,[22],85.8%
CN(C)CCN1C(=O)c2cccc3cc(N)cc(c23)C1=O,cell viability,[1],94.4%
same,cell viability,[2],89.4%
same,cell viability,[3],110%
same,cell viability,[4],108%
same,cell viability,[5],105%
same,cell viability,[6],107%
same,cell viability,[7],108%
same,cell viability,[8],91.1%
same,cell viability,[9],51%
same,cell viability,[10],30.3%
same,cell viability,[11],3.64%
same,cell viability,[12],70.2%
same,cell viability,[13],67.3%
same,cell viability,[14],71.5%
same,cell viability,[15],72.1%
same,cell viability,[16],73.8%
same,cell viability,[17],74.1%
same,cell viability,[18],62.6%
same,cell viability,[19],52.4%
same,cell viability,[20],32.1%
same,cell viability,[21],19.3%
same,cell viability,[22],2.87%
same,cell viability,[23],89.5%
same,cell viability,[24],95%
same,cell viability,[25],98.8%
same,cell viability,[26],102%
same,cell viability,[27],112%
same,cell viability,[28],99.3%
same,cell viability,[29],106%
same,cell viability,[30],92%
same,cell viability,[31],60.1%
same,cell viability,[32],34.6%
same,cell viability,[33],3.19%
N[S+](=O)([O-])OC[C@@H]1C[C@@H](n2ccc3c(N[C@H]4CCc5ccccc54)ncnc32)C[C@@H]1O,cell viability,[1],96.3%
same,cell viability,[2],98.3%
same,cell viability,[3],104%
same,cell viability,[4],94.2%
same,cell viability,[5],105%
same,cell viability,[6],122%
same,cell viability,[7],101%
same,cell viability,[8],53.1%
same,cell viability,[9],27.8%
same,cell viability,[10],14.2%
same,cell viability,[11],7.9%
same,cell viability,[12],101%
same,cell viability,[13],121%
same,cell viability,[14],119%
same,cell viability,[15],101%
same,cell viability,[16],101%
same,cell viability,[17],117%
same,cell viability,[18],113%
same,cell viability,[19],48.4%
same,cell viability,[20],24.5%
same,cell viability,[21],10.3%
same,cell viability,[22],8.49%
same,cell viability,[23],90.8%
same,cell viability,[24],95.4%
same,cell viability,[25],95.7%
same,cell viability,[26],92.1%
same,cell viability,[27],97.3%
same,cell viability,[28],111%
same,cell viability,[29],103%
same,cell viability,[30],35.8%
same,cell viability,[31],23.8%
same,cell viability,[32],12.1%
same,cell viability,[33],8.74%
CC/1=C(/N2[C@H](SC1)[C@H](NC(=O)C(N)C3=CC=CC=C3)C2=O)C(O)=O (stereo not given in full),cell viability,[1],99.3%
same,cell viability,[2],113%
same,cell viability,[3],119%
same,cell viability,[4],110%
same,cell viability,[5],108%
same,cell viability,[6],120%
same,cell viability,[7],120%
same,cell viability,[8],124%
same,cell viability,[9],114%
same,cell viability,[10],126%
same,cell viability,[11],131%
same,cell viability,[12],128%
same,cell viability,[13],118%
same,cell viability,[14],117%
same,cell viability,[15],132%
same,cell viability,[16],155%
same,cell viability,[17],138%
same,cell viability,[18],129%
same,cell viability,[19],141%
same,cell viability,[20],136%
same,cell viability,[21],122%
same,cell viability,[22],131%
same,cell viability,[23],115%
same,cell viability,[24],119%
same,cell viability,[25],137%
same,cell viability,[26],143%
same,cell viability,[27],129%
same,cell viability,[28],140%
same,cell viability,[29],132%
same,cell viability,[30],142%
same,cell viability,[31],132%
same,cell viability,[32],130%
same,cell viability,[33],134%
CC(C)Oc1ccc(C(=O)N[C@H](CNC(=O)CN(C)C)Cc2ccc(-c3cn4cccc([C@H](C)O)c4n3)cc2)cc1Cl,cell viability,[1],116%
same,cell viability,[2],129%
same,cell viability,[3],112%
same,cell viability,[4],109%
same,cell viability,[5],118%
same,cell viability,[6],118%
same,cell viability,[7],102%
same,cell viability,[8],44.5%
same,cell viability,[9],33.5%
same,cell viability,[10],39.9%
same,cell viability,[11],48.5%
same,cell viability,[23],117%
same,cell viability,[24],119%
same,cell viability,[25],117%
same,cell viability,[26],125%
same,cell viability,[27],111%
same,cell viability,[28],111%
same,cell viability,[29],111%
same,cell viability,[30],38.2%
same,cell viability,[31],34.4%
same,cell viability,[32],29.4%
same,cell viability,[33],35.5%
COc1cccc2c1CCCC2CCCN1CCN(C2CCCCC2)CC1 (stereo not given),cell viability,[1],88.4%
same,cell viability,[2],85%
same,cell viability,[3],80.9%
same,cell viability,[4],91.1%
same,cell viability,[5],91.6%
same,cell viability,[6],110%
same,cell viability,[7],96.9%
same,cell viability,[8],88.8%
same,cell viability,[9],97.1%
same,cell viability,[10],83.5%
same,cell viability,[11],55.3%
same,cell viability,[12],87.8%
same,cell viability,[13],85.6%
same,cell viability,[14],89.9%
same,cell viability,[15],91.1%
same,cell viability,[16],101%
same,cell viability,[17],107%
same,cell viability,[18],103%
same,cell viability,[19],97%
same,cell viability,[20],81.3%
same,cell viability,[21],79.1%
same,cell viability,[22],42.9%
same,cell viability,[23],87.7%
same,cell viability,[24],83.3%
same,cell viability,[25],97%
same,cell viability,[26],102%
same,cell viability,[27],111%
same,cell viability,[28],114%
same,cell viability,[29],104%
same,cell viability,[30],91%
same,cell viability,[31],96.7%
same,cell viability,[32],87.6%
same,cell viability,[33],52.5%
c1ccc(-c2oc3ncnc(NC[C@@H]4CCCO4)c3c2-c2ccccc2)cc1,cell viability,[1],115%
same,cell viability,[2],115%
same,cell viability,[3],114%
same,cell viability,[4],121%
same,cell viability,[5],126%
same,cell viability,[6],130%
same,cell viability,[7],125%
same,cell viability,[8],134%
same,cell viability,[9],128%
same,cell viability,[10],121%
same,cell viability,[11],79.4%
same,cell viability,[12],111%
same,cell viability,[13],112%
same,cell viability,[14],109%
same,cell viability,[15],103%
same,cell viability,[16],108%
same,cell viability,[17],110%
same,cell viability,[18],105%
same,cell viability,[19],106%
same,cell viability,[20],112%
same,cell viability,[21],99.9%
same,cell viability,[22],61.1%
same,cell viability,[23],121%
same,cell viability,[24],129%
same,cell viability,[25],115%
same,cell viability,[26],118%
same,cell viability,[27],104%
same,cell viability,[28],136%
same,cell viability,[29],111%
same,cell viability,[30],112%
same,cell viability,[31],118%
same,cell viability,[32],124%
same,cell viability,[33],69.6%
COc1cc(/C=C/C(=O)O)ccc1O,cell viability,[1],80.5%
same,cell viability,[2],92.9%
same,cell viability,[3],64.5%
same,cell viability,[4],93.6%
same,cell viability,[5],92.8%
same,cell viability,[6],90.1%
same,cell viability,[7],91.9%
same,cell viability,[8],106%
same,cell viability,[9],44.8%
same,cell viability,[10],89.9%
same,cell viability,[11],100%
same,cell viability,[12],94.1%
same,cell viability,[13],89%
same,cell viability,[14],62.1%
same,cell viability,[15],84.1%
same,cell viability,[16],99.5%
same,cell viability,[17],94.9%
same,cell viability,[18],101%
same,cell viability,[19],101%
same,cell viability,[20],37.5%
same,cell viability,[21],88.4%
same,cell viability,[22],98.1%
same,cell viability,[23],93.4%
same,cell viability,[24],99.2%
same,cell viability,[25],68.6%
same,cell viability,[26],110%
same,cell viability,[27],115%
same,cell viability,[28],106%
same,cell viability,[29],109%
same,cell viability,[30],104%
same,cell viability,[31],46%
same,cell viability,[32],105%
same,cell viability,[33],106%
